Data as given in patent publication US11179372B2, “Isoxazoline solution containing vitamin E for use with sanitized drinking water” (Intervet Inc., priority 2015, dated 2021).

Tests used:
[1] = tested on: poultry red mite (D. gallinae); assay: Efficacy of Fluralaner in medicated drinking water against poultry red mite infestation of laying hens; format: in vivo, Dermanyssus gallinae; conditions: for % Inhibition of mites 24 hours after infestation on day 1 / % Inhibition of mites 24 hours after infestation on day 5 / % Inhibition of mites 24 hours after infestation on day 8 / % Inhibition of mites 24 hours after infestation on day 12 / % Inhibition of mites 24 hours after infestation on day 15 / % Inhibition of mites 24 hours after infestation on day 19 / % Inhibition of mites 24 hours after infestation on day 22 / % Mortality of mites 24 hours after infestation on day 1 / % Mortality of mites 24 hours after infestation on day 5 / % Mortality of mites 24 hours after infestation on day 8 / % Mortality of mites 24 hours after infestation on day 12 / % Mortality of mites 24 hours after infestation on day 15 / % Mortality of mites 24 hours after infestation on day 19 / % Mortality of mites 24 hours after infestation on day 22: laying hens
From the text: The drinking water used was regular tap water not comprising a significant amount of oxidising sanitizer, and no vitamin E was used in the concentrated Fluralaner solution used. Experimental animals were chickens, particularly laying hens of about 30 weeks old. These were housed in a standard poultry house. Apparently healthy birds were assigned in a random way to treatment groups kept separately, and labelled individually. The birds were kept under natural light, and were given several days for acclimatization; drinking water consumption in each group was measured on three days prior to administration to calculate the average daily water consumption. Medicated water was prepared by diluting a concentrated Fluralaner solution (10 mg/ml) to the desired concentration of Fluralaner in regular tap water (hypochlorite <0.5 ppm). […] Groups A-D (n=6) were treated with doses of 2, 1 or 0.5 mg Fluralaner/kg BW once, or with 1 mg Fluralaner/kg BW in a repeated dose of 0.5 mg/kg BW on 2 occasions, 7 days apart. On day 0 (and group D additionally on day 7), the hens in groups A-D received Fluralaner via medicated drinking water. Group E received un-medicated drinking water ad libitum. The dose to be administered was calculated based on average body weights of each treatment group, measured one day before treatment (day −1, day 6). A concentrated Fluralaner solution was diluted in the drinking water to prepare medicated drinking water ready for consumption, via the following dosing regimen: • The volume of medicated water offered per group on day 0 (group D also on day 7) was approximately 50% of the calculated mean daily water intake measured previously in the respective group in order to ensure consumption of the full dose. • Once all medicated water was consumed the other 50% volume of the mean daily water intake was supplied as unmedicated tap water in the same drinker. On days 1, 5, 8, 12, 15, 19 and 22, four of the six hens per group were infested with approximately 200 vital, D. gallinae mites (unfed nymphs and adults that had starved before infestation for 7 days). From each infested hen approximately 25 engorged mites were collected after a few hours of presence in the animal box, next they were incubated for approximately 24 hours, after which their status was observed. The dead, damaged and/or live mites were counted visually using a binocular. Mites were classified as dead if no movement was determined or mites lay in a dorsal position. Mites were classified as damaged if their movement was uncoordinated. The Mite Mortality and Mite Inhibition percentage was calculated for each treated group in comparison to a non-treated negative control group.

[2] = Effect of drinking water quality on degradation of Fluralaner; format: physicochemical
Method: To assess what caused the degradation of Fluralaner in dilution in drinking water, the impact of different types and qualities of drinking water was tested. This was done by incubation of samples containing 1 μg/g of Fluralaner, in water that contained different ions at increased concentrations from average normal conditions. Samples were mixed and incubated for 7 days, either at 2-8° C., or at 40° C./75% relative humidity (RH). Fluralaner contents were measured before and after incubations. Isoxazolines such as Fluralaner can be detected and quantified by fast liquid chromatography methods, using standard equipment and procedures, such as UHPLC. Standard liquids for washing and as carrier are e.g.: LC grade Acetonitrile, Methanol, Formic acid, and MiliQ™ water can be prepared in house. Fluralaner is characterised based on its UV spectrum and retention profile, and quantified in reference to dilutions of standards. LoQ=Limit of Quantitation, the lowest concentration at which the analyte can reliably be detected. For Fluralaner by UHPLC the LoQ is 100 ng/ml.

[3] = Group A, 2 mg/kg BW once, drinking water
[4] = Group B, 1 mg/kg BW once, drinking water
[5] = Group C, 0.5 mg/kg BW once, drinking water
[6] = Group D, 1 (2 × 0.5) mg/kg BW, days 0 and 7, drinking water
[7] = 1 μg/g Fluralaner in Al^3+ water at 1 mg/l
[8] = 1 μg/g Fluralaner in ClO^- water at 0.5 ppm
[9] = 1 μg/g Fluralaner in ClO^- water at 5 ppm
[10] = 1 μg/g Fluralaner in ClO^- water at 50 ppm
[11] = 1 μg/g Fluralaner in ClO^- water at 150 ppm
[12] = 1 μg/g Fluralaner in ClO^- water at 250 ppm
[13] = 1 μg/g Fluralaner in Cl^- water at 300 mg/l
[14] = 1 μg/g Fluralaner in Cu^2+ water at 10 mg/l
[15] = 1 μg/g Fluralaner in Fe^3+ water at 1 mg/l
[16] = 1 μg/g Fluralaner in Hard water/high pH (500 mg CaCl2•2H2O/l; pH 8.1)
[17] = 1 μg/g Fluralaner in K^+ water at 300 mg/l
[18] = 1 μg/g Fluralaner in NO3^- water at 100 mg/l
[19] = 1 μg/g Fluralaner in Na^+ water at 300 mg/l
[20] = 1 μg/g Fluralaner in PO4^- water at 100 mg/l
[21] = 1 μg/g Fluralaner in Purified water
[22] = 1 μg/g Fluralaner in Soft water/low pH (30 mg CaCl2•2H2O/l; pH 6.2)
[23] = 1 μg/g Fluralaner in Water at pH = 4
[24] = 1 μg/g Fluralaner in Water at pH = 10

For Cc1cc(C2=NOC(c3cc(Cl)cc(Cl)c3)(C(F)(F)F)C2)ccc1C(=O)NCC(=O)NCC(F)(F)F (stereo not drawn) [Fluralaner], the “% Inhibition of mites 24 hours after infestation on day 1” value [1, 3] was 100%, the “% Inhibition of mites 24 hours after infestation on day 5” value (shortened to “% Inhibition … on day 5”) [1, 3] was 100% and the “% Inhibition of mites 24 hours after infestation on day 8” value (from here on “% Inhibition … on day 8”) [1, 3] was 100%. For the same molecule, the “% Inhibition of mites 24 hours after infestation on day 12” value (“% Inhibition … on day 12” for short) [1, 3] was 100%, the “% Inhibition of mites 24 hours after infestation on day 15” value (from here on “% Inhibition … on day 15”) [1, 3] was 81% and the “% Inhibition of mites 24 hours after infestation on day 19” value (from here on “% Inhibition … on day 19”) [1, 3] was 14%. The “% Inhibition of mites 24 hours after infestation on day 22” value (from here on “% Inhibition … on day 22”) [1, 3] was 0%, the “% Mortality of mites 24 hours after infestation on day 1” value [1, 3] was 100% and the “% Mortality of mites 24 hours after infestation on day 5” value (from here on “% Mortality … on day 5”) [1, 3] was 100%. For the same molecule, the “% Mortality of mites 24 hours after infestation on day 8” value (“% Mortality … on day 8” below) [1, 3] was 100%, the “% Mortality of mites 24 hours after infestation on day 12” value (shortened to “% Mortality … on day 12”) [1, 3] was 100% and the “% Mortality of mites 24 hours after infestation on day 15” value (from here on “% Mortality … on day 15”) [1, 3] was 77%. For the same molecule, the “% Mortality of mites 24 hours after infestation on day 19” value (“% Mortality … on day 19” for short) [1, 3] was 1%, the “% Mortality of mites 24 hours after infestation on day 22” value (“% Mortality … on day 22” for short) [1, 3] was 0% and the “% Inhibition of mites 24 hours after infestation on day 1” value [1, 4] was 100%. For the same molecule, the “% Inhibition … on day 5” value [1, 4] was 100%, the “% Inhibition … on day 8” value [1, 4] was 100% and the “% Inhibition … on day 12” value [1, 4] was 95%. The “% Inhibition … on day 15” value [1, 4] was 81%, the “% Inhibition … on day 19” value [1, 4] was 3% and the “% Inhibition … on day 22” value [1, 4] was 0%. For the same molecule, the “% Mortality of mites 24 hours after infestation on day 1” value [1, 4] was 100%, the “% Mortality … on day 5” value [1, 4] was 100% and the “% Mortality … on day 8” value [1, 4] was 100%. For the same molecule, the “% Mortality … on day 12” value [1, 4] was 94%, the “% Mortality … on day 15” value [1, 4] was 77% and the “% Mortality … on day 19” value [1, 4] was 2%. The “% Mortality … on day 22” value [1, 4] was 0%, the “% Inhibition of mites 24 hours after infestation on day 1” value [1, 5] was 100% and the “% Inhibition … on day 5” value [1, 5] was 100%. For the same molecule, the “% Inhibition … on day 8” value [1, 5] was 100%, the “% Inhibition … on day 12” value [1, 5] was 75% and the “% Inhibition … on day 15” value [1, 5] was 19%. For the same molecule, the “% Inhibition … on day 19” value [1, 5] was 0%, the “% Inhibition … on day 22” value [1, 5] was 0% and the “% Mortality of mites 24 hours after infestation on day 1” value [1, 5] was 100%. The “% Mortality … on day 5” value [1, 5] was 100%, the “% Mortality … on day 8” value [1, 5] was 97% and the “% Mortality … on day 12” value [1, 5] was 55%. The “% Mortality … on day 15” value [1, 5] was 15%, the “% Mortality … on day 19” value [1, 5] was 0% and the “% Mortality … on day 22” value [1, 5] was 0%. For the same molecule, the “% Inhibition of mites 24 hours after infestation on day 1” value [1, 6] was 100%, the “% Inhibition … on day 5” value [1, 6] was 100% and the “% Inhibition … on day 8” value [1, 6] was 100%. The “% Inhibition … on day 12” value [1, 6] was 100%, the “% Inhibition … on day 15” value [1, 6] was 99% and the “% Inhibition … on day 19” value [1, 6] was 66%. For the same molecule, the “% Inhibition … on day 22” value [1, 6] was 27%, the “% Mortality of mites 24 hours after infestation on day 1” value [1, 6] was 100% and the “% Mortality … on day 5” value [1, 6] was 100%. For the same molecule, the “% Mortality … on day 8” value [1, 6] was 100%, the “% Mortality … on day 12” value [1, 6] was 100% and the “% Mortality … on day 15” value [1, 6] was 98%. For the same molecule, the “% Mortality … on day 19” value [1, 6] was 59%, the “% Mortality … on day 22” value [1, 6] was 14% and the “Onset of action against red mites” value ([1]; all administered doses) was “fast onset of action”. For the same molecule, the “Fluralaner content after 7 days at 2-8° C.” value [2, 7] was 0.99 µg/g, the “Fluralaner content after 7 days at 40° C./75% RH” value [2, 7] was 1.01 µg/g and the “Fluralaner content after 7 days at 2-8° C.” value [2, 8] was 0.99 µg/g. For the same molecule, the “Fluralaner content after 7 days at 40° C./75% RH” value [2, 8] was 0.82 µg/g, the “Fluralaner content after 7 days at 2-8° C.” value [2, 9] was “<LOQ” and the “Fluralaner content after 7 days at 40° C./75% RH” value [2, 9] was “<LOQ”. For the same molecule, the “Fluralaner content after 7 days at 2-8° C.” value [2, 10] was “<LOQ”, the “Fluralaner content after 7 days at 40° C./75% RH” value [2, 10] was “<LOQ” and the “Fluralaner content after 7 days at 2-8° C.” value [2, 11] was “<LOQ”. The “Fluralaner content after 7 days at 40° C./75% RH” value [2, 11] was “<LOQ”, the “Fluralaner content after 7 days at 2-8° C.” value [2, 12] was “Not detected” and the “Fluralaner content after 7 days at 40° C./75% RH” value [2, 12] was “Not detected”. The “Fluralaner content after 7 days at 2-8° C.” value [2, 13] was 0.97 µg/g, the “Fluralaner content after 7 days at 40° C./75% RH” value [2, 13] was 0.98 µg/g and the “Fluralaner content after 7 days at 2-8° C.” value [2, 14] was 0.90 µg/g. The “Fluralaner content after 7 days at 40° C./75% RH” value [2, 14] was 0.78 µg/g, the “Fluralaner content after 7 days at 2-8° C.” value [2, 15] was 0.91 µg/g and the “Fluralaner content after 7 days at 40° C./75% RH” value [2, 15] was 0.89 µg/g. The “Fluralaner content after 7 days at 2-8° C.” value [2, 16] was 0.92 µg/g, the “Fluralaner content after 7 days at 40° C./75% RH” value [2, 16] was 0.96 µg/g and the “Fluralaner content after 7 days at 2-8° C.” value [2, 17] was 0.90 µg/g. The “Fluralaner content after 7 days at 40° C./75% RH” value [2, 17] was 0.80 µg/g, the “Fluralaner content after 7 days at 2-8° C.” value [2, 18] was 0.92 µg/g and the “Fluralaner content after 7 days at 40° C./75% RH” value [2, 18] was 0.93 µg/g. For the same molecule, the “Fluralaner content after 7 days at 2-8° C.” value [2, 19] was 0.85 µg/g, the “Fluralaner content after 7 days at 40° C./75% RH” value [2, 19] was 0.84 µg/g and the “Fluralaner content after 7 days at 2-8° C.” value [2, 20] was 1.14 µg/g. For the same molecule, the “Fluralaner content after 7 days at 40° C./75% RH” value [2, 20] was 1.15 µg/g, the “Fluralaner content after 7 days at 2-8° C.” value [2, 21] was 0.90 µg/g and the “Fluralaner content after 7 days at 40° C./75% RH” value [2, 21] was 0.92 µg/g. For the same molecule, the “Fluralaner content after 7 days at 2-8° C.” value [2, 22] was 0.88 µg/g, the “Fluralaner content after 7 days at 40° C./75% RH” value [2, 22] was 0.89 µg/g and the “Fluralaner content after 7 days at 2-8° C.” value [2, 23] was 1.23 µg/g. For the same molecule, the “Fluralaner content after 7 days at 40° C./75% RH” value [2, 23] was 1.26 µg/g, the “Fluralaner content after 7 days at 2-8° C.” value [2, 24] was 0.78 µg/g and the “Fluralaner content after 7 days at 40° C./75% RH” value [2, 24] was 0.79 µg/g.
